{"source": "patent US20230119013A1", "about": "“N-CYANOPYRROLIDINES WITH ACTIVITY AS USP30 INHIBITORS” (MISSION THERAPEUTICS LIMITED, priority 2020, published 2023)", "key": {"[1]": {"tested_on": "cathepsins B, K, L, S and V", "assay": "Cathepsin IC50, summary over B, K, L, S, V", "assay_type": "biochemical", "conditions": "K, L"}, "[2]": {"tested_on": "T1, cathepsins B, K, L, S and V", "T1 construct": "Cathepsin IC50 (μM) B, K, L, S, V; other: range over the five cathepsins", "assay": "Cathepsin IC50, summary over B, K, L, S, V", "assay_type": "biochemical", "conditions": "range over the five cathepsins"}, "[3]": {"tested_on": "USP2, USP10, USP16, USP21, USP22, USP25, USP28", "assay": "DUB IC50, seven DUBs", "assay_type": "biochemical", "conditions": "for DUB selectivity preference for USP30 v 7 DUBs: range over the seven DUBs"}, "[4]": {"tested_on": "T2, USP2, USP10, USP16, USP21, USP22, USP25, USP28", "T2 construct": "DUB IC50 (μM) USP2, USP10, USP16, USP21, USP22, USP25, USP28; other: range over the seven DUBs", "assay": "DUB IC50, seven DUBs", "assay_type": "biochemical", "conditions": "range over the seven DUBs"}, "USP30": {"target": "T3, USP30 (Homo sapiens, UniProt Q70CQ3)", "T3 construct": "purchased Boston Biochem E582", "T3 sequence (Q70CQ3 57-517 limits assumed)": "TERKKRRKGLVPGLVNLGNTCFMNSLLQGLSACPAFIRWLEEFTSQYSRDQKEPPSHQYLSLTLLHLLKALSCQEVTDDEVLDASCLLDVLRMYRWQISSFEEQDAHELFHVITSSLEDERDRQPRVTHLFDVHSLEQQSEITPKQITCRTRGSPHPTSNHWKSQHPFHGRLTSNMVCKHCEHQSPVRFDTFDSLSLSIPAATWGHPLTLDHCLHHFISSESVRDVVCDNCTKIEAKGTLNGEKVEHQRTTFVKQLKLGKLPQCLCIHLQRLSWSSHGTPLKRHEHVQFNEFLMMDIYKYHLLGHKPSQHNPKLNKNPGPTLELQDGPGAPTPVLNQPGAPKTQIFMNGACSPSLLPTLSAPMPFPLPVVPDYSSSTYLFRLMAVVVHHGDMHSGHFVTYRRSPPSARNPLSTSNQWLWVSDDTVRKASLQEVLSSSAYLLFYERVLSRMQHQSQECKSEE", "assay": "USP30 biochemical IC50 assay (fluorescence polarisation)", "method": "Dilution plates were prepared at 21 times the final concentration (2100 μM for a final concentration of 100 μM) in 50% DMSO in a 96-well polypropylene V-bottom plate (Greiner #651201). A typical 8-point dilution series would be 100, 30, 10, 3, 1, 0.3, 0.1, 0.03 μM final. Reactions were performed in duplicate in black 384 well plates (small volume, Greiner 784076) in a final reaction volume of 21 μl. Either 1 μl of 50% DMSO or diluted compound was added to the plate. USP30 (Boston Biochem #E582) was diluted in reaction buffer (40 mM Tris, pH 7.5, 0.005% Tween 20, 0.5 mg/ml BSA, 5 mM beta-mercaptoethanol) to achieve a final assay concentration of 4 nM, and 10 μl of diluted USP30 was added to the compound. Enzyme and compound were incubated for 30 min at room temp. Reactions were initiated by the addition of 50 nM of TAMRA labelled peptide linked to ubiquitin via an iso-peptide bond as fluorescence polarisation substrate. Reactions were read immediately after addition of substrate and following a 2-hour incubation at room temperature. Readings were performed on a Pherastar Plus (BMG Labtech). λ Excitation 540 nm; Emission 590 nm."}, "hepatocyte": {"tested_on": "hepatocyte", "assay": "Hepatocyte clearance mouse", "assay_type": "in vitro ADME", "conditions": "mouse hepatocytes", "text": "(§1) log P: partition coefficient; lipophilicity measurement. log D: distribution co-efficient; lipophilicity measurement. TPSA: topological polar surface area. Turbidimetric solubility: Test compound solution prepared in DMSO diluted into aqueous buffer. Turbidimetry is used as the end-point by measuring absorbance at 620 nm. FaSSIF: simulated intestinal fluid in fasted state measured at pH 6.5. Hep Cl mouse: in vitro hepatocyte clearance in mouse cells. Hep Cl human: in vitro hepatocyte clearance in human cells. Plasma fu,p: The free fraction of a compound in plasma preparation determined by in vitro equilibrium dialysis. It is understood that only unbound (free) compound is capable of engaging with the target. Brain fu,br: The free fraction of a compound in brain homogenate preparation determined by in vitro equilibrium dialysis. It is understood that only unbound (free) compound is capable of engaging with the target. Clu: in vitro clearance. Clu as defined here is the scaled clearance, in turn calculated from the intrinsic clearance. The intrinsic clearance is the predicted clearance due to hepatic metabolic reactions, determined from incubation of a compound in a hepatocyte preparation. […] Cl in vivo clearance: Pharmacokinetic measurement of the volume of plasma (or any matrix) from which a substance is completely removed per unit time."}, "Mouse plasma stability": {"assay": "Mouse plasma stability", "assay_type": "in vitro ADME", "conditions": "read-out: Stability Mouse plasma t1/2"}, "[5]": {"tested_on": "HCT116 human colorectal carcinoma cells", "assay": "In vitro cytotoxicity (Cell Tox), alamarBlue", "assay_type": "cell-based", "conditions": "HCT-116, 96-hour continual compound exposure", "method": "In Vitro Cytotoxicity (Cell Tox): Measured in HCT116 human colorectal carcinoma cells using alamarBlue™ as the assay endpoint. Compound cytotoxicity was measured over a period of 96-hour continual compound exposure."}, "UCHL1": {"target": "T4, UCHL1 (Homo sapiens, UniProt P09936)", "T4 sequence (P09936 1-223)": "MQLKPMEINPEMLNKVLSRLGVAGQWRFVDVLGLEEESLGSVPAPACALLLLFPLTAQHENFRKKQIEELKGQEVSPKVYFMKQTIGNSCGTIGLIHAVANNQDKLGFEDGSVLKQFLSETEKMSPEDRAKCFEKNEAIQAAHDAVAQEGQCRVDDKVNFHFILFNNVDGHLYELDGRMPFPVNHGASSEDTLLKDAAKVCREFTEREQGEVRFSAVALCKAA", "assay": "DUB IC50 UCHL1", "assay_type": "biochemical"}, "[6]": {"assay": "Plasma free fraction by equilibrium dialysis", "assay_type": "in vitro ADME", "conditions": "mouse plasma; read-out: Binding Mouse Plasma fu, p", "text": "as §1"}, "TOM20 ubiquitylation": {"tested_on": "TOM20 ubiquitylation", "assay": "TOM20-ubiquitylation assay", "assay_type": "cell-based, human", "conditions": "antimycin A/oligomycin mitophagy trigger", "text": "Human cell lines can be challenged with mitochondrial depolarizing agents (ionophores (eg. CCCP, valinomycin), mitochondrial complex inhibitors (oligomycin, antimycin A)) to induce ubiquitylation of TOM20, which is then further promoted in the presence of USP30 inhibitors. TOM20 ubiquitylation is subsequently assessed through western blotting of the cell lysates, with TOM20 ubiquitylation adduct detection possible due to an 8 kDa molecule weight increase for each molecule of ubiquitin added, resulting in laddering of a TOM20 immunoreactive band. TOM20-ubiquitylation levels can be quantified using chemiluminescence densitometry of laddered immunoreactive bands."}}, "note": "Read-outs that look alike come from different tables or passages of the source."}
{"smiles": "COc1cccc(-c2cc(C(=O)N[C@@H]3CCN(C#N)C3)on2)c1", "note": "[Reference Example A, reference compound]", "values": [{"measurement": "fold more potent against USP30 than against each of the cathepsins, at a minimum", "setting": "[1]; cathepsins B, S and V", "value": 11, "unit": "fold"}, {"measurement": "Selectivity preference for USP30 v cathepsins", "setting": "[1]; range over cathepsins B, S, V", "value": "11-126"}, {"measurement": "IC50", "setting": "[2]", "value": "0.79 to 8.8", "unit": "µM"}, {"measurement": "fold more potent against USP30 than against each of the seven DUBs, at a minimum", "setting": "[3]; USP2, USP10, USP16, USP21, USP22, USP25 and USP28", "value": 2.7, "unit": "fold"}, {"measurement": "DUB selectivity preference for USP30 v 7 DUBs", "setting": "[3]", "value": "2.7-141"}, {"measurement": "IC50", "setting": "[4]", "value": "0.19 to 9.9", "unit": "µM"}]}
{"smiles": "COC[C@H]1C[C@@H](NC(=O)c2ncc(-c3cccc(OC(F)(F)F)c3)o2)CN1C#N", "note": "[Example 3, N-((3R,5R)-1-Cyano-5-(methoxymethyl)pyrrolidin-3-yl)-5-(3-(trifluoromethoxy)phenyl)oxazole-2-carboxamide]", "values": [{"measurement": "fold more potent against USP30 than Reference Example A", "setting": "USP30; biochemical assay", "value": 9, "unit": "fold"}, {"measurement": "fold more potent against USP30 than Reference Example B", "setting": "USP30; biochemical assay", "value": 22, "unit": "fold"}, {"measurement": "fold more potent against USP30 than Reference Example C", "setting": "USP30; biochemical assay", "value": 39, "unit": "fold"}, {"measurement": "fold more potent against USP30 than Reference Example D", "setting": "USP30; biochemical assay", "value": 550, "unit": "fold"}, {"measurement": "IC50", "setting": "USP30; read-out: USP30 IC50", "value": 0.008, "unit": "µM"}, {"measurement": "DUB selectivity preference for USP30 v 7 DUBs", "setting": "[3]", "value": ">37500"}, {"measurement": "IC50", "setting": "[4]", "value": "> 300", "unit": "µM"}, {"measurement": "Hepatocyte Cl mouse scaled Clu", "setting": "hepatocyte", "value": 97.4, "unit": "mL/min/kg"}, {"measurement": "half-life", "setting": "Mouse plasma stability", "value": "> 2", "unit": "h"}, {"measurement": "EC50", "setting": "[5]", "value": 23900, "unit": "nM"}, {"measurement": "DUB selectivity preference for USP30 v UCHL1", "setting": "UCHL1", "value": 37500}, {"measurement": "IC50", "setting": "UCHL1", "value": "> 300", "unit": "µM"}, {"measurement": "fraction unbound", "setting": "[6]", "value": 0.036}, {"measurement": "TOM20-Ub 1.5-fold gain EC1.5x (μM)", "setting": "TOM20 ubiquitylation", "value": "0.210 (n = 1) μM"}]}
{"smiles": "CC1CC(C(=O)Nc2ncc(-c3ccccc3)s2)CN1C#N", "note": "(stereo not drawn) [D, reference compound]", "values": [{"measurement": "fold more potent against USP30 than UCHL1", "setting": "UCHL1", "value": 1.5, "unit": "fold"}]}
{"smiles": "N#Cc1ccc(-c2cnc(NC(=O)[C@H]3CCN(C#N)C3)s2)cc1OC(F)(F)F", "note": "[B, reference compound]", "values": [{"measurement": "IC50", "setting": "USP30; read-out: DUB IC50 (μM) USP30", "value": 0.172, "unit": "µM"}, {"measurement": "IC50", "setting": "USP30; read-out: USP30 IC50", "value": 0.172, "unit": "µM"}, {"measurement": "DUB selectivity preference for USP30 v UCHL1", "setting": "UCHL1", "value": 4.5}, {"measurement": "IC50", "setting": "UCHL1", "value": 0.77, "unit": "µM"}, {"measurement": "fold more potent against USP30 than UCHL1", "setting": "UCHL1", "value": 4.5, "unit": "fold"}]}
{"smiles": "N#CN1CC[C@H](C(=O)Nc2ncc(-c3ccccc3)s2)C1", "note": "[C, reference compound]", "values": [{"measurement": "fold more potent against USP30 than UCHL1", "setting": "UCHL1", "value": 0.8, "unit": "fold"}]}
